Data on eleven compounds can be found in patent US4888336A, “Steroid 5-alpha-reductase inhibitors” (SmithKline Beckman Corporation, priority 1987, dated 1989).

Where two headings read alike, the source gives them in different places.

Experiment [1] deals with 5-alpha-reductase. In words: Time course of in vivo 5-alpha-reductase inhibition: T and DHT in rat ventral prostate (Table IV). The settings on record: for DHT level / T level: ventral prostate, mean + SEM; for DHT level: ** P < .05; for T level: listed as name T not given. Details: species or system rats.
The test system of experiment [2] is steroid 5-alpha-reductase. As to the kind of experiment: In vivo inhibition of steroid 5-alpha-reductase: T and DHT levels in rat ventral prostate, 6 hours after oral dosing (Table III). Set-up: species or system Male Charles River CD rats. To be noted: for DHT level / T level: ± SEM.
The target in experiment [3] is T1, human steroid 5-alpha-reductase (Homo sapiens, UniProt P31213).
T1 construct: Prostatic particles were obtained by differential centrifugation; from tissue; host or cells: hyperplastic human prostate, washed 140,000×g particulate fraction
T1 sequence (P31213 1-254): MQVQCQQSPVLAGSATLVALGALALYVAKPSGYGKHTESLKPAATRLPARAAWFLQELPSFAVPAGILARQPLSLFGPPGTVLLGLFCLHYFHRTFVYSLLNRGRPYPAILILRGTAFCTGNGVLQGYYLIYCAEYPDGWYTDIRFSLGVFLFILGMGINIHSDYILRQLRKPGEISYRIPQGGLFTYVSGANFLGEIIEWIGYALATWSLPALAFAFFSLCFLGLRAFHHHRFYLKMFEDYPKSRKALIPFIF
In words: Inhibition of human prostatic steroid 5-alpha-reductase ([14C]-testosterone conversion, Dixon plot). The experiment is classed as biochemical. As for the experimental part:
In determining potency in inhibiting the human enzyme, the following procedure was employed:
The tissue was homogenized in 3 to 5 volumes of 20 mM potassium phosphate, pH 6.5, buffer containing 0.33 M sucrose, 1 mM dithiothreitol, and 50 μM NADPH with a Brinkmann Polytron (Sybron Corporation, Westbury, N.Y.).
The resulting pellet was suspended in 20 mM potassium phosphate buffer, pH 6.5, containing 20% glycerol, 1 mM dithiothreitol, and 50 μM NADPH. The suspended particulate solution was stored at -80° C.
After incubating the solution at 37° C. for 20 to 30 minutes the reaction was quenched by the addition of 4 ml ethyl acetate and 0.25 μmol each of testosterone, dihydrotestosterone, androstanediol, and androstanedione as carriers. The organic layer was removed to a second test tube and evaporated to dryness in a Speed Vac. […] The radiochemical content in the bands of the substrate and the products was determined with a BIOSCAN Imaging Scanner (Bioscan, Inc., Washington, D.C.). The percent of recovered radiolabel converted to product was calculated, from which enzyme activity was determined. All incubations were conducted such that no more than 12% of the substrate (testosterone) was consumed.
The experimentally obtained data was computer fitted to a linear function by plotting the reciprocal of the enzyme activity (1/velocity) against the variable inhibitor concentration (Dixon, M. (1953), Biochem. J., 55, 170). Assuming that the steroidal inhibitor is a competitive inhibitor against testosterone, a value for the inhibition constant (Ki) can be calculated from equation 1: […]

Experiment [4] deals with Steroid 5-alpha-reductase. To be noted: cited from earlier work; for Reversibility of inhibition: Table 1; for Inhibition of steroid 5-alpha-reductase, in words: literature description.
Setting [5] is: read-out: K1 (5-alpha-Reductase Inhibitors).
Setting [6] is: human hyperplastic prostate particulate, pH 5.0, 37° C., read-out: Ki.

As for `CC(C)N(C(=O)[C@H]1CCC2=C3CC[C@H]4N(C)C(=O)CC[C@]4(C)[C@H]3CC[C@@]21C)C(C)C` [4-Methyl-4-aza-5-alpha-8(14)-androsten-3-one-17β-N,N-diisopropylcarboxamide], the T/DHT in experiment [1] (1 Hour) is given as 1.00; in experiment [1] (2 Hours), “.97”; in experiment [1] (4 Hours) it was 1.20; in experiment [1] (8 Hours), 1.13. Besides, the DHT level result in experiment [1] (1 Hour) is reported as “.532 ± .08 ng/100 mg tissue”; in experiment [1] (2 Hours) it was “.496 ± .05 ng/100 mg tissue”; in experiment [1] (4 Hours), “.504 ± .09 ng/100 mg tissue”; in experiment [1] (8 Hours), “.498 ± .04 ng/100 mg tissue”. Moreover, the T level entry in experiment [1] (1 Hour) is “.533 ± .15 ng/100 mg tissue”; in experiment [1] (2 Hours), “.481 ± .12 ng/100 mg tissue”; in experiment [1] (4 Hours), “.607 ± .24 ng/100 mg tissue”; in experiment [1] (8 Hours), “.565 ± .16 ng/100 mg tissue”. Also, the “Difference in DHT levels compared to controls, in words” value in experiment [1] (at 1, 2, 4, and 8 hours, P < .05) is given as “significant differences in DHT levels”.
With `C[C@@H](C(=O)O)[C@H]1CCC2=C3CC[C@H]4N(C)C(=O)CC[C@]4(C)[C@H]3CC[C@@]21C` [4-Methyl-4-aza-5-alpha-8(14)-pregnen-3-one-(20R)-20-carboxylic acid], in experiment [2] (5 mg/kg oral), the T/DHT was determined as 0.79, the DHT level is 0.43 ± .12 ng/100 mg ventral prostate tissue and the T level is given as 0.34 ± .11 ng/100 mg ventral prostate tissue. Moreover, in experiment [2] (10 mg/kg oral), the T/DHT is 0.76, the DHT level is on record as 0.34 ± .09 ng/100 mg ventral prostate tissue and the T level is 0.26 ± .07 ng/100 mg ventral prostate tissue. In addition, in experiment [2] (20 mg/kg oral), the T/DHT worked out at 0.88, the DHT level is given as 0.34 ± .06 ng/100 mg ventral prostate tissue and the T level is given as 0.30 ± .04 ng/100 mg ventral prostate tissue.
Take `C[C@@H](CO)[C@H]1CCC2=C3CC[C@H]4N(C)C(=O)CC[C@]4(C)[C@H]3CC[C@@]21C` [(1)]: the Ki in experiment [3] turned out to be 450 ± 20 nM.
On to `C[C@]12CC[C@H]3[C@@H](CCC4=CC(=O)CC[C@@]43C)[C@@H]1CC[C@@H]2C(=O)O` [(1)], for which the Reversibility of inhibition entry in experiment [4] is on record as “Reversible”. Moreover, the Ki in experiment [4] (setting [5]) is 1100 nM.
For `CC(=O)C1CCC2C3CC=C=CC(=O)CCC(=O)C3CCC12C` (stereo not shown) [(2)], the Reversibility of inhibition result in experiment [4] is “Irreversible”. The Ki in experiment [4] (setting [5]) was 1000 nM.
Regarding `C[C@@H](C(=O)O)[C@H]1CCC2=C3CC[C@H]4N(C)C(=O)CC[C@]4(C)[C@H]3CC[C@@]21C` [(2)], the Ki in experiment [3] (setting [6]) is 100 ± 10 nM.
Same read-out and setting: the figure for `CC(C)N(C(=O)[C@H]1CCC2=C3CC[C@H]4N(C)C(=O)CC[C@]4(C)[C@H]3CC[C@@]21C)C(C)C` [(3)] is 8 ± 2 nM.
Consider `CC(CO)[C@H]1CC[C@H]2[C@@H]3CC[C@H]4C(=[N+]=[N-])C(=O)CC[C@]4(C)[C@H]3CC[C@]12C` (stereo partly shown) [(3)], for which, in experiment [4], the Reversibility of inhibition result is on record as “Irreversible” and the “Inhibition of steroid 5-alpha-reductase, in words” value is “potent, time-dependent inhibitor”. Moreover, the Ki in experiment [4] (line (3) printed without unit, read-out: K1 (5-alpha-Reductase Inhibitors), unit inferred) is 35 nM.
Take `CCN(CC)C(=O)[C@H]1CC[C@H]2[C@@H]3CC[C@H]4N(C)C(=O)CC[C@]4(C)[C@H]3CC[C@]12C` [(4)]: the Reversibility of inhibition entry in experiment [4] was “Reversible”. For the same compound, the Ki in experiment [4] (setting [5]) is 5 nM.
As for `C=C1C[C@@H]2[C@H](CC[C@@]3(C)[C@H]2CC[C@]3(OC(C)=O)C(C)=O)[C@@]2(C)CCC(=O)C=C12` [(5)], in experiment [4], the Reversibility of inhibition entry is “Irreversible” and the “Inhibition of steroid 5-alpha-reductase, in words” value was “time-dependent inactivator”. The Ki in experiment [4] (setting [5]) was 1250 nM.
For `C[C@@H](CO)[C@H]1CCC2=C3CC[C@H]4N(C)C(=O)CC[C@]4(C)[C@H]3CC[C@@]21C` [(20R)-Hydroxymethyl-4-methyl-4-aza-5-alpha-8(14)-pregnen-3-one], in experiment [2] (5 mg/kg oral), the T/DHT was found to be 0.72, the DHT level is recorded as 0.72 ± .21 ng/100 mg ventral prostate tissue and the T level is recorded as 0.52 ± .27 ng/100 mg ventral prostate tissue. In experiment [2] (10 mg/kg oral), the T/DHT was determined as 0.83, the DHT level is on record as 0.53 ± .12 ng/100 mg ventral prostate tissue and the T level is 0.44 ± .13 ng/100 mg ventral prostate tissue. Also, in experiment [2] (20 mg/kg oral), the T/DHT is reported as 0.92, the DHT level was 0.49 ± .14 ng/100 mg ventral prostate tissue and the T level was 0.45 ± .12 ng/100 mg ventral prostate tissue.
